Results on 19 molecules are retold here after patent US9399646B2 (Genentech, Inc., priority 2010, dated 2016).

For one test, the system named is MCF-7 cells. Put plainly: Breast cancer cell viability assay (CellTiter-Glo, 5 days). Type of test: cell-based. The note with it: 5 days' compound exposure; for IC50: Homo sapiens, MCF7, 120 h. Summed up:
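MCF-7 cells, 320 per well in RPMI with 10% FBS and 20 mM HEPES, adhered overnight, then exposed 5 days to an eleven-point semilog dilution (final 0.3-0.000003 μM). CellTiter-Glo luminescence read; % viability = (sample − cell-free background)/(untreated − background) × 100.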
In general terms: Cellular ATP, detected with luciferase, serves as a proxy for viable cell number.

A further test concerns the target T1, ER-α in MCF-7 cells (Homo sapiens, UniProt P03372).
T1 sequence (P03372 1-595): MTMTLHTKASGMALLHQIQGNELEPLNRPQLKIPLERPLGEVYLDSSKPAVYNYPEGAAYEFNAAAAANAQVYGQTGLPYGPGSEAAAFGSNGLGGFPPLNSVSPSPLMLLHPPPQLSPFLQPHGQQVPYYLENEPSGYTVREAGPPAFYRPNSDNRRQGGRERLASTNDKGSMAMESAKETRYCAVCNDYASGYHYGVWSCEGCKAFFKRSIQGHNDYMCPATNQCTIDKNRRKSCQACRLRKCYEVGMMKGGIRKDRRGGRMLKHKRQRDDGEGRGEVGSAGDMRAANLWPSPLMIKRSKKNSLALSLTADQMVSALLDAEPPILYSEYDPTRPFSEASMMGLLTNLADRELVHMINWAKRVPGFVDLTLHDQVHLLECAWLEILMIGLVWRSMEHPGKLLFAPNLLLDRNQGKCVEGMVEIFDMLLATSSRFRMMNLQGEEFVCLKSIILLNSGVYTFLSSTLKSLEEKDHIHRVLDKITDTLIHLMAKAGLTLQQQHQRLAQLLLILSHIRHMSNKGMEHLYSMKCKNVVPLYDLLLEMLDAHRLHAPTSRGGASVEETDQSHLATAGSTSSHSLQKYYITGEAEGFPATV
The test can be described thus: Breast cancer cell ER-α in cell western assay (SP1). Type of test: cell-based. Also noted: endogenous in cells; host or cells: MCF-7. The note with it: 4 or 24 hr post compound addition; for Emax: MCF7, SP1 antibody, read-out: ER-α In Cell Western Assay (SP1) Max Response; for DC50: SP1 antibody, read-out: ER-α In Cell Western Assay (SP1) IC50. The method, boiled down:
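Percent remaining ER: SP1 immunofluorescence normalized to DRAQ5 nuclear stain, compared with untreated controls. Treatment lasted 4 or 24 hr across 0.3–0.000003 μM final in MCF-7.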

The structures appear in SMILES notation.

`CC/C(=C(/c1ccc(/C=C/C(=O)O)cc1)c1ccc2nccnc2c1)c1ccccc1` [Compound 124, (E)-3-(4-((E)-2-Phenyl-1-(quinoxalin-6-yl)but-1-en-1-yl)phenyl)acrylic acid]: in the test on MCF-7 cells, the “MCF7 Viability Assay Max Response” value is given as “+ (+ = a single % value < 40%)” and the IC50 (in general, the concentration that gives 50% inhibition) was more than 100 nM. On ER-α in MCF-7 cells, the Emax is not below 40% and the DC50 was more than 100 nM.

With `CC/C(=C(/c1ccc(OC[C@H](C)N2CC[C@@H](C)C2)cc1)c1ccc2[nH]ncc2c1)c1ccccc1` [Compound 329, 5-((E)-1-(4-((S)-2-((R)-3-Methylpyrrolidin-1-yl)propoxy)phenyl)-2-phenylbut-1-en-1-yl)-1H-indazole], in the test with MCF-7 cells, the “MCF7 Viability Assay Max Response” value is listed as “++ (++ = a single % value ≧ 40%)” and the IC50 is not above 100 nM. For the same molecule, at ER-α in MCF-7 cells, the Emax is not below 40% and the DC50 was not above 100 nM.

Consider `CC/C(=C(/c1ccc(/C=C/C(=O)O)cc1)c1ccc2[nH]ncc2c1)c1ccc2c(c1)OCO2` [Compound 240, (E)-3-(4-((E)-2-(Benzo[d][1,3]dioxol-5-yl)-1-(1H-indazol-5-yl)but-1-en-1-yl)phenyl)acrylic acid], for which, in the test with MCF-7 cells, the “MCF7 Viability Assay Max Response” value is given as “++ (++ = a single % value ≧ 40%)” and the IC50 is not above 100 nM. For the same molecule, at ER-α in MCF-7 cells, the Emax is not below 40% and the DC50 is not above 100 nM.

As to `CC/C(=C(/c1ccc(/C=C/C(=O)O)cc1)c1ccc2scnc2c1)c1ccccc1Cl` [Compound 280, (E)-3-(4-((E)-1-(Benzo[d]thiazol-5-yl)-2-(2-chlorophenyl)but-1-en-1-yl)phenyl)acrylic acid], in the test on MCF-7 cells, the “MCF7 Viability Assay Max Response” value is “++ (++ = a single % value ≧ 40%)” and the IC50 was not above 100 nM. Also, at ER-α in MCF-7 cells, the Emax is not below 40% and the DC50 is not above 100 nM.

As to `CC/C(=C(/c1ccc(/C=C/C(=O)O)cc1)c1cc(F)c2[nH]ncc2c1)c1cc[n+]([O-])cc1Cl` [Compound 453, 4-((E)-1-(4-((E)-2-Carboxyvinyl)phenyl)-1-(7-fluoro-1H-indazol-5-yl)but-1-en-2-yl)-3-chloropyridine-1-oxide], in the test with MCF-7 cells, the “MCF7 Viability Assay Max Response” value is listed as “++ (++ = a single % value ≧ 40%)” and the IC50 is more than 100 nM. Also, on ER-α in MCF-7 cells, the Emax was not below 40% and the DC50 was more than 100 nM.

For the molecule `Cc1cscc1/C(=C(\c1ccc(/C=C/C(=O)O)cc1)c1ccc2scnc2c1)C1CCC1` [Compound 279, (E)-3-(4-((E)-1-(Benzo[d]thiazol-5-yl)-2-cyclobutyl-2-(4-methylthiophen-3-yl)vinyl)phenyl)acrylic acid], in the test with MCF-7 cells, the “MCF7 Viability Assay Max Response” value is recorded as “++ (++ = a single % value ≧ 40%)” and the IC50 is not above 100 nM. Also, at ER-α in MCF-7 cells, the Emax is not below 40% and the DC50 is not above 100 nM.

Take `CC/C(=C(/c1ccc(/C=C/C(=O)O)cc1)c1ccc2[nH]ncc2c1)c1ccsc1` [Compound 24, (E)-3-(4-((E)-1-(1H-Indazol-5-yl)-2-(thiophen-3-yl)but-1-en-1-yl)phenyl)acrylic acid]: in the test on MCF-7 cells, the “MCF7 Viability Assay Max Response” value is “++ (++ = a single % value ≧ 40%)” and the IC50 is not above 100 nM. Further, on ER-α in MCF-7 cells, the Emax was not below 40% and the DC50 was not above 100 nM.

Consider `CC/C(=C(/c1ccc(/C=C/C(=O)NC)cc1)c1ccc2scnc2c1)c1ccccc1` [Compound 427, (E)-3-(4-((E)-1-(Benzo[d]thiazol-5-yl)-2-phenylbut-1-en-1-yl)phenyl)-N-methylacrylamide], for which, in the test with MCF-7 cells, the “MCF7 Viability Assay Max Response” value is “++ (++ = a single % value ≧ 40%)” and the IC50 is not above 100 nM. In addition, on ER-α in MCF-7 cells, the Emax is not below 40% and the DC50 is not above 100 nM.

With `CC/C(=C(/c1ccc(/C=C/C(=O)NS(C)(=O)=O)cc1)c1ccc2scnc2c1)c1ccc(F)cc1Cl` [Compound 416, (E)-3-(4-((E)-1-(Benzo[d]thiazol-5-yl)-2-(2-chloro-4-fluorophenyl)but-1-en-1-yl)phenyl)-N-(methylsulfonyl)acrylamide], in the test with MCF-7 cells, the “MCF7 Viability Assay Max Response” value is listed as “++ (++ = a single % value ≧ 40%)” and the IC50 is not above 100 nM. Also, on ER-α in MCF-7 cells, the Emax was not below 40% and the DC50 was not above 100 nM.

With `CC/C(=C(/c1ccc(-c2cc(O)no2)cc1)c1ccc2[nH]ncc2c1)c1ccc(F)cc1Cl` [Compound 333, (E)-5-(4-(2-(2-Chloro-4-fluorophenyl)-1-(1H-indazol-5-yl)but-1-en-1-yl)phenyl)isoxazol-3-ol], in the test with MCF-7 cells, the “MCF7 Viability Assay Max Response” value was “++ (++ = a single % value ≧ 40%)” and the IC50 was not above 100 nM. Also, on ER-α in MCF-7 cells, the Emax is not below 40% and the DC50 was not above 100 nM.

On to `CC/C(=C(/c1ccc(/C=C/C(=O)O)cc1)c1ccc2[nH]ncc2c1)c1ccncc1Cl` [Compound 204, (E)-3-(4-((E)-2-(3-Chloropyridin-4-yl)-1-(1H-indazol-5-yl)but-1-en-1-yl)phenyl)acrylic acid], for which, in the test with MCF-7 cells, the “MCF7 Viability Assay Max Response” value is “++ (++ = a single % value ≧ 40%)” and the IC50 was not above 100 nM. The Emax on ER-α in MCF-7 cells was not below 40%.

With `CC/C(=C(/c1ccc(/C=C/C(=O)O)cc1)c1ccc2[nH]ncc2c1F)c1cscc1C` [Compound 242, (E)-3-(4-((E)-1-(4-Fluoro-1H-indazol-5-yl)-2-(4-methylthiophen-3-yl)but-1-en-1-yl)phenyl)acrylic acid], in the test with MCF-7 cells, the “MCF7 Viability Assay Max Response” value was “++ (++ = a single % value ≧ 40%)” and the IC50 was not above 100 nM. Moreover, at ER-α in MCF-7 cells, the Emax was not below 40% and the DC50 was not above 100 nM.

In the case of `CC/C(=C(/c1ccc2cc(C(=O)O)ccc2c1)c1ccc2[nH]ncc2c1)c1ccccc1` [Compound 449, (E)-6-(1-(1H-Indazol-5-yl)-2-phenylbut-1-en-1-yl)-2-naphthoic acid], in the test with MCF-7 cells, the “MCF7 Viability Assay Max Response” value was “++ (++ = a single % value ≧ 40%)” and the IC50 is not above 100 nM. In addition, at ER-α in MCF-7 cells, the Emax is not below 40% and the DC50 is not above 100 nM.

Turning to `CC/C(=C(/c1ccc(/C=C/C(=O)O)cc1)c1ccc2[nH]ncc2c1)c1cccc(OCCOC)c1` [Compound 341, (E)-3-(4-((E)-1-(1H-Indazol-5-yl)-2-(3-(2-methoxyethoxy)phenyl)but-1-en-1-yl)phenyl)acrylic acid], in the test with MCF-7 cells, the “MCF7 Viability Assay Max Response” value is listed as “++ (++ = a single % value ≧ 40%)” and the IC50 was not above 100 nM. Also, on ER-α in MCF-7 cells, the Emax is not below 40% and the DC50 was not above 100 nM.

Consider `CCCCCCOc1cccc(/C(CC)=C(\c2ccc(/C=C/C(=O)O)cc2)c2ccc3[nH]ncc3c2)c1` [Compound 350, (E)-3-(4-((E)-2-(3-(Hexyloxy)phenyl)-1-(1H-indazol-5-yl)but-1-en-1-yl)phenyl)acrylic acid], for which, in the test on MCF-7 cells, the “MCF7 Viability Assay Max Response” value is on record as “++ (++ = a single % value ≧ 40%)” and the IC50 was more than 100 nM. In addition, on ER-α in MCF-7 cells, the Emax was not below 40% and the DC50 was not above 100 nM.

In the case of `CC/C(=C(/c1ccc(/C=C/C(=O)O)cc1)c1ccc2[nH]ncc2c1)c1cccc(Oc2ccccc2F)c1` [Compound 367, (E)-3-(4-((E)-2-(3-(2-Fluorophenoxy)phenyl)-1-(1H-indazol-5-yl)but-1-en-1-yl)phenyl)acrylic acid], in the test on MCF-7 cells, the “MCF7 Viability Assay Max Response” value was “++ (++ = a single % value ≧ 40%)” and the IC50 is not above 100 nM. Besides, at ER-α in MCF-7 cells, the Emax was not below 40% and the DC50 was not above 100 nM.

As to `CC/C(=C(/c1ccc(/C=C/C(=O)O)cc1)c1ccc2[nH]ncc2c1)c1cccc(CC(=O)O)c1` [Compound 327, (E)-3-(4-((E)-2-(3-(Carboxymethyl)phenyl)-1-(1H-indazol-5-yl)but-1-en-1-yl)phenyl)acrylic acid], in the test on MCF-7 cells, the “MCF7 Viability Assay Max Response” value is reported as “+ (+ = a single % value < 40%)” and the IC50 was more than 100 nM. In addition, at ER-α in MCF-7 cells, the Emax was less than 40% and the DC50 is more than 100 nM.

With `CC/C(=C(/c1ccc(/C=C/C(=O)O)cc1)c1ccc2[nH]ncc2c1)c1ccc2occc2c1` [Compound 247, (E)-3-(4-((E)-2-(Benzofuran-5-yl)-1-(1H-indazol-5-yl)but-1-en-1-yl)phenyl)acrylic acid], in the test on MCF-7 cells, the “MCF7 Viability Assay Max Response” value is reported as “++ (++ = a single % value ≧ 40%)” and the IC50 is not above 100 nM. Moreover, at ER-α in MCF-7 cells, the Emax was not below 40% and the DC50 was not above 100 nM.

Turning to `CC/C(=C(/c1ccc(/C=C/C(=O)O)cc1)c1cccc2[nH]nnc12)c1ccc(F)cc1Cl` [Compound 89, (E)-3-(4-((E)-1-(1H-Benzo[d][1,2,3]triazol-4-yl)-2-(2-chloro-4-fluorophenyl)but-1-en-1-yl)phenyl)acrylic acid], in the test on MCF-7 cells, the “MCF7 Viability Assay Max Response” value was “++ (++ = a single % value ≧ 40%)” and the IC50 was not above 100 nM. Also, at ER-α in MCF-7 cells, the Emax was not below 40% and the DC50 is not above 100 nM.
